Results published in US12186311B2, “Antiproliferative compounds and second active agents for combined use” (Celgene Corporation, priority 2019, dated 2025).

Assays:
Format in all cases: cell-based
[1] = tested on: AMO1 (parental) cell line; assay: Cell proliferation, combination with Compound 2, combination index (Calcusyn), AMO1; conditions: AMO1, 3 days
Protocol: (§1) AMO1 (parental) and AMO1-PR (pomalidomide resistant) cell lines were treated with various doses of Compound 2 in combination with increasing doses of an MEK inhibitor trametinib for 3 days. Cell proliferation was analyzed using thymidine incorporation assays. Combination index values were calculated by Calcusyn and values below 10^0 represented the synergy between the combination treatments. The results are shown in FIG. 4A (AMO1), FIG. 4B (AMO1 combination index), FIG. 4C (AMO1-PR), and FIG. 4D (AMO1-PR combination index), respectively.
(§2) AMO1 and AMO1-PR (pomalidomide resistant) cell lines were treated with increasing doses of Compound 2 in combination with a PLK1 inhibitor (BI2536). Changes in cell proliferation were studied in response to monotherapy and combinations at Day 3 post treatment. Combination Index was calculated using Calcusyn based method. Combination index values were calculated by Calcusyn and values below 10^0 represented the synergy between the combination treatments. PLK1 is one of the key target gene of MDMS8 (molecularly defined myeloma segment 8), a high risk cluster identified from myeloma genome project. The results are shown in FIG. 6A (AMO1), FIG. 6B (AMO1 combination index), FIG. 6C (AMO1-PR), and FIG. 6D (AMO1-PR combination index), respectively. Inhibition of MDMS8 target gene PLK1 with Compound 2 is synergistic in AMO1 and AMO1-PR cells.
(§3) AMO1 and AMO1-PR (pomalidomide resistant) cell lines were treated with increasing doses of Compound 2 in combination with an NEK2 inhibitor (JH295). Changes in cell proliferation were studied in response to monotherapy and combinations at Day 3 post treatment. Combination index values were calculated by Calcusyn and values below 10^0 represented the synergy between the combination treatments. NEK2 is one of the key target gene of MDMS8 (molecularly defined myeloma segment 8), a high risk cluster identified from myeloma genome project. The results are shown in FIG. 7A (AMO1 combination index) and FIG. 7B (AMO1-PR combination index), respectively. Inhibition of MDMS8 target gene NEK2 with Compound 2 is synergistic in AMO1 and AMO1-PR cells.
(§4) AMO1, AMO1-PR (pomalidomide resistant), K12PE and K12PE-PR (pomalidomide resistant) cell lines were treated with increasing doses of Compound 2 in combination with an AURKB inhibitor (AZD 1152). […] Combination index values were calculated by Calcusyn and values below […] represented the synergy between the combination treatments. […]
(§5) AMO1, AMO1-PR (pomalidomide resistant) cell lines were treated with increasing doses of Compound 2 in combination with a BIRC5 inhibitor (YM155). […] Combination index values were calculated by Calcusyn and values below 10^0 represented the synergy between the combination treatments. […]

[2] = tested on: AMO1-PR (pomalidomide resistant) cell line; assay: Cell proliferation, combination with Compound 2, combination index (Calcusyn), AMO1-PR; conditions: 3 days
Protocol: as §1, §2, §3, §4, §5

[3] = tested on: MM cell lines OPM.2-P10, H929-1051, KMS12BM PR, L363, JJN3; assay: 7 day combination assay (Annexin V/7-AAD flow cytometry, fractional product method), MM cell line panel; conditions: panel of 5 MM cell lines, 7 day assay, 3 days priming with second agent
Protocol: Five MM cell lines with acquired or inherent resistance to lenalidomide or pomalidomide were included in the studies (OPM.2-P10, H929-1051, KM[…] PR, L363, and JJN3). […] The assay was performed in a 96-well plate. All MM cell lines were cultured in an incubator at 37° C. with 5% CO2 using the indicated cell culture media containing 1×Penicillin-Streptomycin. The MM cells were primed for 3 days with these second agents at the single agent IC50 value. […] Compound 2 was added to the cells at a dose range of 30 μM-0.00018 μM, depending on the cell line, for a 8 point dose response curve. The cells were incubated at 37° C. for an additional 4 days. At the end of the 7 day treatment, the MM cells were stained with Annexin V and 7-AAD and analyzed on a flow cytometer. Live MM cells were identified as Annexin V and 7-AAD double negative cells. In these experiments, synergy calculations were performed using the fractional product method (Webb, 1963).

[4] = tested on: panel of MM cell lines (H929-1051, KMS11, KMS-12PE, L363, OPM-P10, RPMI8226); assay: Compound 2 combination with small molecule inhibitors, 3 day Cell Titer-Glo, Highest Single Agent synergy; conditions: six MM cell lines, 3 days, Highest Single Agent method
Protocol: The combination experiments were run twice, each time with replicate data on separate plates. Compounds were pre-spotted into the appropriate wells of 384-well plates using an acoustic dispenser. All MM cell lines were cultured in an incubator at 37° C. with 5% CO2 using the indicated cell culture media containing 1× Penicillin-Streptomycin. Cells were added to the compound containing 384-well plates using a Multidrop Combi Reagent Dispenser and allowed to incubate for 3 days at 37° C. with 5% CO2. After 3 days, cells were assessed for their level of ATP content via Cell Titer-Glo measured on a luminescence detector (PerkinElmer Envision).
The Highest Single Agent (HAS) method was used to detect synergy in the dose response curve data. Combinations were analyzed from a response surface perspective.

| SMILES | synergy in combination with Compound 2 [3] | synergy in combination with Compound 2 [4] | other results |
| --- | --- | --- | --- |
| CC[C@@H]1C(=O)N(C)c2cnc(Nc3ccc(C(=O)NC4CCN(C)CC4)cc3OC)nc2N1C1CCCC1 [BI2536, (R)-4-((8-cyclopentyl-7-ethyl-5-methyl-6-oxo-5,6,7,8-tetrahydropteridin-2-yl)amino)-3-methoxy-N-(1-methylpiperidin-4-yl)benzamide] | – | – | synergy with Compound 2 (combination index) [1]: synergistic; synergy with Compound 2 (combination index) [2]: synergistic |
| COc1cc(C)[nH]c(=O)c1CNC(=O)c1c(C)n([C@H](C)C2CCN(CC(F)(F)F)CC2)c2ccccc12 [CPI-1205, (R)—N-((4-methoxy-6-methyl-2-oxo-1,2-dihydropyridin-3-yl)methyl)-2-methyl-1-(1-(1-(2,2,2-trifluoroethyl)piperidin-4-yl)ethyl)-1H-indole-3-carboxamide] | synergistic in all 5 cell lines tested | – | – |
| C#CC(=O)Nc1ccc2c(c1)/C(=C/c1[nH]c(CC)nc1C)C(=O)N2 [JH295, (Z)—N-(3-((2-ethyl-4-methyl-1H-imidazol-5-yl)methylene)-2-oxoindolin-5-yl)propiolamide] | – | – | synergy with Compound 2 (combination index) [1]: synergistic; synergy with Compound 2 (combination index) [2]: synergistic |
| CC(C)N(CCCNC(=O)Nc1ccc(C(C)(C)C)cc1)C[C@H]1O[C@@H](n2cc(Br)c3c(N)ncnc32)[C@H](O)[C@@H]1O [SGC0946, 5 bromo-7-[5-deoxy-5-[[3-[[[[4-(1,1-dimethylethyl)phenyl]amino]carbonyl]amino]propyl](1-methylethyl)amino]-β-D-ribofuranosyl]-7H-pyrrolo[2,3-d]pyrimidin-4-amine] | – | synergy in one, two, or three out of the six cell lines tested | – |
| COCCn1c2c([n+](Cc3cnccn3)c1C)C(=O)c1ccccc1C2=O.[Br-] [YM155, 1-(2-methoxyethyl)-2-methyl-4,9-dioxo-3-(pyrazin-2-ylmethyl)-4,9-dihydro-1H-naphtho[2,3-d]imidazol-3-ium bromide] | – | – | synergy with Compound 2 (combination index) [1]: synergistic; synergy with Compound 2 (combination index) [2]: synergistic |
| Nc1ncn([C@@H]2O[C@H](CO)[C@@H](O)[C@H]2O)c(=O)n1 [azacitidine, 4-amino-1-β-D-ribofuranosyl-1,3,5-triazin-2(1H)-one] | synergy in 4 of the cell lines tested | – | – |
| CO[C@H]1C[C@@H]2CC[C@@H](C)[C@@](O)(O2)C(=O)C(=O)N2CCCC[C@H]2C(=O)O[C@H]([C@H](C)C[C@@H]2CC[C@@H](OCCO)[C@H](OC)C2)CC(=O)[C@H](C)/C=C(\C)[C@@H](O)[C@@H](OC)C(=O)[C@H](C)C[C@H](C)/C=C/C=C/C=C/1C [everolimus, 40-O-(2-hydroxyethyl)-rapamycin] | – | synergy in combination with Compound 2 in five out of the six cell lines tested | – |
| Cc1cnc(Nc2ccc(OCCN3CCCC3)cc2)nc1Nc1cccc(S(=O)(=O)NC(C)(C)C)c1 [fedratinib, N-tert-butyl-3-[(5-methyl-2-{4-[2-(pyrrolidin-1-yl)ethoxy]anilino}pyrimidin-4-yl)amino]benzenesulfonamide] | – | synergy in one, two, or three out of the six cell lines tested | – |
| C=CC(=O)N1CCC[C@@H](n2nc(-c3ccc(Oc4ccccc4)cc3)c3c(N)ncnc32)C1 [ibrutinib, 1-[(3R)-3-[4-amino-3-(4-phenoxyphenyl)-1Hpyrazolo[3,4-d]pyrimidin-1-yl]-1-piperidinyl]-2-propen-1-one] | – | synergy in one, two, or three out of the six cell lines tested | – |
| C[C@]1(O)C[C@@H](c2nc(-c3ccc4ccc(-c5ccccc5)nc4c3)c3c(N)nccn32)C1 [linsitinib, cis-3-[8-amino-1-(2-phenyl-7-quinolinyl)imidazo[1,5-a]pyrazin-3-yl]-1-methylcyclobutanol] | – | synergy in combination with Compound 2 in four out of the six cell lines tested | – |
| CC(C)N(C[C@H]1O[C@@H](n2cnc3c(N)ncnc32)[C@H](O)[C@@H]1O)C1CC(CCc2nc3cc(C(C)(C)C)ccc3[nH]2)C1 (stereo partly drawn) [pinometostat, (2R,3R,4S,5R)-2-(6-amino-9H-purin-9-yl)-5-((((1r,3S)-3-(2-(5-(tert-butyl)-1H-benzo[d]imidazol-2-yl)ethyl)cyclobutyl)(isopropyl)amino)methyl)tetrahydrofuran-3,4-diol] | Synergy was also evident | – | – |
| O=C(/C=C\n1cnc(-c2cc(C(F)(F)F)cc(C(F)(F)F)c2)n1)NNc1cnccn1 [selinexor, (2Z)-3-{3-[3,5-bis(trifluoromethyl)phenyl]-1H-1,2,4-triazol-1-yl}-N′-(pyrazin-2-yl)prop-2-enehydrazide] | – | synergy in one, two, or three out of the six cell lines tested | – |
| CCN(c1cc(-c2ccc(CN3CCOCC3)cc2)cc(C(=O)NCc2c(C)cc(C)[nH]c2=O)c1C)C1CCOCC1 [tazemetostat, N-[(1,2-dihydro-4,6-dimethyl-2-oxo-3-pyridinyl)methyl]-5-[ethyl(tetrahydro-2H-pyran-4-yl)amino]-4-methyl-4′-(4-morpholinylmethyl)-[1,1′-biphenyl]-3-carboxamide] | synergistic in all 5 cell lines tested | synergy in one, two, or three out of the six cell lines tested | – |
